Results as given in patent US5776940A, “Phenylxanthine derivatives” (Glaxo Wellcome Inc., priority 1994, dated 1998).
One block for each molecule: values may come before it.

Key:
[1] = test system: C. parvum/LPS septic shock in mice; assay: In vivo Septic Shock model C. parvum/LPS Shock; design: species or system mouse (male CD-1); settings: for % Survival After 48 hr / Alive/Total at 3 hr / Alive/Total at 48 hr: schedule -2,0 hr
Experimental: 3) In vivo Septic Shock model C. parvum/LPS Shock
Male CD-1 mice, 25-30 g (Charles River: Raleigh, N.C.), are injected intravenously (i.v.) with 100 μg killed C. parvum (Coparvax; Burroughs Wellcome, RTP, NC). Nine or ten days later the mice are injected i.v. with 20 μg E. coli 026:B6 lipopolysaccharide (LPS; Difco Labs, Detroit, Mich.) in the presence of the analgesic butorphanol (150 μg per mouse). (E)-4-(1,3-bis(cyclohexylmethyl)-1, 2, 3, 6-tetrahydro-2, 6dioxo-9H-purin-8-yl)cinnamic acid was dissolved in ENCAPSIN (hydroxypropyl-β-cyclodextrin) for i.v. dosing before, at the same time as, and after the endotoxin. Control (untreated) animals go into shock within the first 90 min following LPS administration, and approximately 50% die within 3-5 hr. Mice are monitored for the first 7 hr and at 24 and 48 hr for survival.
(E)-4-(1,3-bis(cyclohexylmethyl)-1, 2, 3, 6-tetrahydro-2, 6-dioxo-9H-purin-8-yl) cinnamic acid was administered at 0.001 to 80 mg/kg i.v. in the Septic Shock model described above.

[2] = test system: arachidonate cyclooxygenase; assay: Arachidonate metabolism: cyclooxygenase inhibition in rat pleural exudate cells; assay type: cell-based, rat (Harlan Sprague-Dawley male); settings: ionophore A23187, 10 μM arachidonate, 37° C., read-out: Enzymes IC50 CO
Experimental: (§1) Compounds of the invention were assayed for inhibiting activity in arachidonate metabolism and PAF synthesis as follows.
(§2) A) Arachidonate Metabolism
(§3) Arachidonate cyclooxygenase, 5-lipoxygenase, and thromboxane synthetase were assayed as described in White et al, Prostaglandins, Leukotrienes and Medicine, 1985; 20: p 1-9. Pleural exudate cells were harvested from Harlan Sprague-Dawley male rats (150±20 g) 3 hr after intrapleural injection of 0.5 mg carrageenan. Cell counts were obtained from pooled exudates, which were then centrifuged at 200 g (10 min, 4° C.) and resuspended at 15 million cells/ml in 0.13M NaCl, 15 mM Tris-Cl, 5 mM glucose, pH 7.4. Portions of this cell suspension (3 million cells per assay) were preincubated with and without compound being tested for 5 min at 37° C. in 50 mM Tris-Cl, 1 mM CaCl2, pH 7.4. Ionophore A23187 (3 μM) and [^14 C]arachidonate (to give 10 μM; 55 Ci/mol) were then added in a total assay volume of 400 μl, and incubation was continued for 2 min at 37° C. Blank assays were performed using sonicated cells with 0.1 mM 3-amino-1-m-trifluoromethylphenyl pyrazol-2-ine, an inhibitor of cyclooxygenase and lipoxygenase pathways. After incubation, reaction mixtures were acidified with 20 μl of 2N HCl and extracted with 4 ml diethyl ether. Ether extracts were dried under nitrogen, resuspended in ethyl acetate, and chromatographed on Whatman LK5D silica gel G plates, using ethyl acetate/isooctane/acetic acid/water (9/5/2/10; vols; top layer after 5 min shaking). Thin layer plates were exposed to Kodak SB-5 X-ray film to produce autoradiogran. [^14 C]DPM in products were obtained by scraping appropriate regions of TLC plates and counting in a scintillation spectrometer. Effects on the 5-lipoxygenase pathway were estimated by counting 5-HETE and 5,12-diHETE (LTB4). Cyclooxygenase and thromboxane synthetase inhibition were estimated by counting thromboxane B2 and prostaglandin E2 or F2 α. Selective thromboxane inhibitors will decrease thromboxane B2 and increase PGE2 and PGF2 α. Cyclooxygenase inhibitors will inhibit the formation of all three products.

[3] = test system: antigen-induced airway eosinophilia; assay: Inhibition of antigen-induced airway eosinophilia in the guinea pig; assay type: in vivo, guinea pig (male Hartley); settings: 24 h after antigen challenge
Experimental: 2) Compounds of the invention were assayed for inhibition of Antigen-Induced airway eosinophilia as follows:
Male Hartley guinea pigs [Crl:(HA)Br, Charles River] weighing 200-300 g were sensitized to ovalbumin (OA) by intraperitioneal (i.p.) injections (in 1 ml 0.9% saline) of 20 mg followed by 1 mg 2 or 3 days later. After four to twelve weeks, the animals were treated with the antihistamine, pyrilamine (1 mg/kg i.p), 1 hour prior to exposure (17.8 l chamber) and for 10 min to an aerosol of OA (0.5% w/v solution in 0.9% sterile saline) generated from a jet nebulizer (Devilbiss Model 40; flow rate=8.51/min). […] Twenty-four hours after antigen challenge, each animal was anesthetized with sodium pentobarbital (55-75 mg/kg i.p.), the trachea cannulated and the lungs lavaged with 4×10 ml aliquots of Hanks' Balanced Salt Solution warmed to 37° C. The aliquots were pooled in 40 ml polycarbonate centrifuge tubes, centrifuged (200 g for 10 min at 4° C.) and the cell pellet resuspended in HEPES buffered solution (2 ml). Fifty μl of the suspension were added to 10 ml of Isoton Diluent (Fisher Scientific) containing three drops of lysing agent and the cells counted with a Coulter Counter (Model ZB1). Four μl of the cell suspension were spread on a 3×1 inch glass microscope slide, allowed to dry and the cells stained with DIFF-QUIK™ (Fisher Scientific). Two slides were prepared for each animal. Differential cell counts were made (100× magnification) from a minimum of four fields on 100 cells per slide (total cells counted per animal=200), using standard morphological criteria to classic cells into eosinophils, neutrophils, lymphocytes and macrophages. The activity of the test compound was calculated by comparing the mean proportions of eosinophils in the lavage fluid of compound-treated animals with controls (vehicle-treated animals) and expressing as percent inhibition.

[4] = molecular target: T1, arachidonate 5-lipoxygenase (Rattus norvegicus, UniProt P12527); assay: Arachidonate metabolism: 5-lipoxygenase inhibition in rat pleural exudate cells; assay type: cell-based, rat (Harlan Sprague-Dawley male); settings: ionophore A23187, 10 μM arachidonate, 37° C., read-out: Enzymes IC50 5-LO
T1 construct: endogenous in cells; host or cells: pleural exudate cells of male Harlan Sprague-Dawley rats, 3 hr after intrapleural carrageenan
T1 sequence (P12527 1-673): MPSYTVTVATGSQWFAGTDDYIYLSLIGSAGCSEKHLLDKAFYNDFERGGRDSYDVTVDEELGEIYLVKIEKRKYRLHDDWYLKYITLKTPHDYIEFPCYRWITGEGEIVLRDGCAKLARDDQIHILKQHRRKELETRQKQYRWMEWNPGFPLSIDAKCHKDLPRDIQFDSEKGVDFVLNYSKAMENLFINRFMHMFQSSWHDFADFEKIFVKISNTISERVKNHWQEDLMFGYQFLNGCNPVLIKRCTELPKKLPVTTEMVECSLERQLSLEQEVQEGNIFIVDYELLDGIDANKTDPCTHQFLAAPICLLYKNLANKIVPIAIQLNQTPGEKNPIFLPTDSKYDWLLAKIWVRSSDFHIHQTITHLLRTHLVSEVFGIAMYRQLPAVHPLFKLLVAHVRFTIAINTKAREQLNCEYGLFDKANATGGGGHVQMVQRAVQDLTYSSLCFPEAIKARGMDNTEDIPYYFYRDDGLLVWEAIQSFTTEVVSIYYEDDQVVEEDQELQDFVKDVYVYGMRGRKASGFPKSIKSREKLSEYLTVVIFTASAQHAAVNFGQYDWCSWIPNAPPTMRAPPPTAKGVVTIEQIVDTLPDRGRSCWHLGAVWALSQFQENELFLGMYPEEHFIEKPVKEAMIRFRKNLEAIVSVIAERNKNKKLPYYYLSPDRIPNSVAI
Experimental: as §1, §2, §3

[5] = molecular target: T2, lyso-PAF: acetyl-CoA acetyltransferase (Rattus norvegicus, UniProt P0C1Q3); assay: Lyso-PAF: Acetyl-CoA Acetyltransferase [Synthesis of Platelet-Activating Factor (PAF)] in a lysate of rat pleural neutrophils; assay type: biochemical, rat (male Harlan Sprague-Dawley); settings: lysate of activated rat pleural neutrophils, pH 6.9, 37° C., 10 min; read-out: Enzymes IC50 PAF
T2 construct: measured in a lysate of rat pleural neutrophils; endogenous in cells
T2 sequence (P0C1Q3 1-544): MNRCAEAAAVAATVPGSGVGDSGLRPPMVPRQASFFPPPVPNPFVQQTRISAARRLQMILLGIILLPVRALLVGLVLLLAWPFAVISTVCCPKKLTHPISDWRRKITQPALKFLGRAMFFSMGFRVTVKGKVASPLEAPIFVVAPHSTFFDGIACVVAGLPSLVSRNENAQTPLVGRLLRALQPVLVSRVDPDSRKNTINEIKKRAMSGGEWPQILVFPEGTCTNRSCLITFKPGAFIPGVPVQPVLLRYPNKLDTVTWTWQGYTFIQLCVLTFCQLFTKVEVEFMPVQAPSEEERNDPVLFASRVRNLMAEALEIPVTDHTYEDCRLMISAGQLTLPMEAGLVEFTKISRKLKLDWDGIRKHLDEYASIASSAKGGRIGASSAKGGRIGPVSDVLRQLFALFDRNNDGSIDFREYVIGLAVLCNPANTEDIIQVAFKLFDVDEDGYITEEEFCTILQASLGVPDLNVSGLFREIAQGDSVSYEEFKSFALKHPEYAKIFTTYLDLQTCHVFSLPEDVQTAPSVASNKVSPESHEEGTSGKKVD
Experimental: as §1
B) Lyso-PAF: Acetyl-CoA Acetyltransferase [Synthesis of Platelet-ActivatingFactor (PAF)]
Synthesis of PAF (platelet-activating factor) was measured in a lysate of rat pleural neutrophils, as described by White and Faison, Prostaglandins,1988; 35: p939-44. Pleural exudate cells, harvested from male Harlan Sprague-Dawley rats (150±20 g) 3 hr after injection of 0.5 mg carrageenan, were centrifuged at 200 g for 10 min at 4° C., washed, and resuspended at approximately 17 million cells/mi in a buffer consisting of 50 mM potassium phosphate, 144 mM NaCl, 6 mM KCl, 5 mM glucose, 1 mM MgCl2, 1.3 mM CaCl2, pH 7.4. Resuspended cells were incubated with calcium ionophore A23187 (1 μM) for 5 min at 37° C. to activate the acetyltransferase and then centrifuged at 755 g for 2 min at 4° C. Pellets were resuspended in cold distilled water and sonicated in a 50 Hz ultrasonic bath. Portions (250 μl) of the resulting lysate were mixed with buffer, test compound, and substrates to give 36 mM Tris-Cl, pH 6.9, 12 μM lyso-PAF, and 2.3 μM [^14 C]acetyl-CoA (0.06 μCi) in a total volume of 500 μl. Blank assays contained nonactivated neutrophils and no added lyso-PAF. The compound being tested was added prior to substrates. After incubation at 37° C. for 10 min. 0.68 ml of 2N HCl and 2.53 ml of 1:1 chloroform/methanol were added to each tube to extract labeled PAF. Each tightly-covered tube was briefly sonicated in a Branson 50 Hz bath, vortexed for 20 sec, and centrifuged at 160 g for 5 min to separate solvent phases. A 0.90 ml aliquot of the lower (organic)phase was pipetted into a glass scintillation vial, dried under nitrogen using an N-EVAP apparatus (Organomation Associates), and counted using scintillation techniques.

Compound: O=C(O)/C=C/c1ccc(-c2nc3c(=O)n(CC4CCCCC4)c(=O)n(CC4CCCCC4)c3[nH]2)cc1 [Example 1, (E)-4-[1,3 Bis(cyclohexylmethyl)-1,2,3,6-tetrahydro-2,6-dioxo-9H-purin-8-yl]cinnamic Acid]
% Survival After 48 hr ([1]; 0.001 mg/kg i.v.): 13%
Alive/Total at 3 hr ([1]; 0.001 mg/kg i.v.): 6/8
Alive/Total at 48 hr ([1]; 0.001 mg/kg i.v.): 1/8
% Survival After 48 hr ([1]; 0.01 mg/kg i.v.): 13%
Alive/Total at 3 hr ([1]; 0.01 mg/kg i.v.): 7/8
Alive/Total at 48 hr ([1]; 0.01 mg/kg i.v.): 1/8
% Survival After 48 hr ([1]; 0.1 mg/kg i.v.): 50%
Alive/Total at 3 hr ([1]; 0.1 mg/kg i.v.): 6/8
Alive/Total at 48 hr ([1]; 0.1 mg/kg i.v.): 4/8
% Survival After 48 hr ([1]; 1.0 mg/kg i.v.): 88%
Alive/Total at 3 hr ([1]; 1.0 mg/kg i.v.): 6/8
Alive/Total at 48 hr ([1]; 1.0 mg/kg i.v.): 7/8
protection (decreasing mortality) ([1]; 0.001 to 80 mg/kg i.v., administered 2 hr before and at the time of LPS): greater than 50%
% Survival After 48 hr ([1]; 5.0 mg/kg i.v.): 75%
Alive/Total at 3 hr ([1]; 5.0 mg/kg i.v.): 7/8
Alive/Total at 48 hr ([1]; 5.0 mg/kg i.v.): 6/8
% Survival After 48 hr ([1]; 10 mg/kg i.v.): 75%
Alive/Total at 3 hr ([1]; 10 mg/kg i.v.): 8/8
Alive/Total at 48 hr ([1]; 10 mg/kg i.v.): 6/8
% Survival After 48 hr ([1]; 20 mg/kg i.v.): 75%
Alive/Total at 3 hr ([1]; 20 mg/kg i.v.): 8/8
Alive/Total at 48 hr ([1]; 20 mg/kg i.v.): 6/8
% Survival After 48 hr ([1]; 40 mg/kg i.v.): 75%
Alive/Total at 3 hr ([1]; 40 mg/kg i.v.): 7/8
Alive/Total at 48 hr ([1]; 40 mg/kg i.v.): 6/8
% Survival After 48 hr ([1]; 60 mg/kg i.v.): 75%
Alive/Total at 3 hr ([1]; 60 mg/kg i.v.): 7/8
Alive/Total at 48 hr ([1]; 60 mg/kg i.v.): 6/8
% Survival After 48 hr ([1]; 80 mg/kg i.v.): 63%
Alive/Total at 3 hr ([1]; 80 mg/kg i.v.): 7/8
Alive/Total at 48 hr ([1]; 80 mg/kg i.v.): 5/8
IC50 [2]: 0.1 µM
Inhibition of Airway Eosinophilia (% inhibition) ([3]; dose 5 mg/kg ip): 50%
IC50 [4]: 0.3 µM
IC50 [5]: 2.5 µM

IC50 [2]: 5 µM
IC50 [4]: 6 µM
IC50 [5]: 15 µM
Compound: O=C(O)/C=C/c1ccc(-c2nc3c(=O)n(CC4CCCC4)c(=O)n(CC4CCCC4)c3[nH]2)cc1 [Example 4, (E)-4-[1,3 Bis(cyclopentylmethyl)-1,2,3,6-tetrahydro-2,6-dioxo-9H-purin-8-yl]cinnamicAcid]
Inhibition of Airway Eosinophilia (% inhibition) ([3]; dose 10 mg/kg ip): 46%

IC50 [2]: 4 µM
IC50 [4]: 1.5 µM
IC50 [5]: 12 µM
Compound: O=C(O)/C=C/c1ccc(-c2nc3c(=O)n(CC4CCCCCC4)c(=O)n(CC4CCCCCC4)c3[nH]2)cc1 [Example 7, (E)-4-[1,3 Bis(cycloheptylmethyl)-1,2,3,6-tetrahydro-2,6-dioxo-9H-purin-8-yl]cinnamicAcid]
Inhibition of Airway Eosinophilia (% inhibition) ([3]; dose 6.8 mg/kg ip): 50%
